Reference: US20090298868A1, “QUINOLINE COMPOUNDS AS MELANOGENESIS MODIFIERS AND USES THEREOF” (priority 2007, published 2009)
Structures can show the parent of a compound that is named as a salt. Where two headings read alike, the source gives them in different places.

System: cultured murine melanocytes (melan-a)
Test: Melanin assay in cultured murine melanocytes (melan-a)
Type: cell-based
Settings: for inhibition at 1 µM / inhibition at 5 µM / IC50: Mus musculus; for inhibition at 1 µM / inhibition at 5 µM: 72 h; for inhibition at 1 µM: read-out: % Inh. @ 1 μM; for inhibition at 5 µM: read-out: % Inh. @ 5 μM
Description: The Spectrum Collection library consisting of 2000 drug compounds or natural products was screened to identify novel pigmentation inhibitors or stimulators in cultured murine melanocytes (melan-a). Compounds were dissolved in dimethylsulfoxide (DMSO) to a final concentration of 10 mM. Screening was performed with cultured melanocytes in 24-well plates followed by melanin assay (see below). A minimum change of 50% in melanin formation was established as significant for a pigmentation inhibitor or stimulator. DMSO was used as a negative control and the widely used depigmenting agent, hydroquinone, was used as a positive control on every plate. Primary screening was performed at a final concentration of 1 μM and potential candidates from the primary screening were reconfirmed in duplicate at final concentrations of 1 and 5 μM.
Melan-a cells were plated at 5×10^4 cells per well in 1 ml of culture media in 24-well plates the day before adding the library compounds. All compounds were added at the indicated final concentrations. Cells were harvested after 72 hours of incubation, and melanin assay was performed.
The hits identified herein were purchased from Sigma (St Louis, Mo.). […] These compounds were dissolved in dimethylsulfoxide (DMSO) to a final concentration of 10 mM, and were tested for their effect on melanin synthesis at the indicated final concentrations.
For the primary and secondary screening, cells were harvested and dissolved in 200 μL of 2N NaOH in 20% DMSO at 70° C. A 180-μl aliquot of the resulting solution was measured for absorbance at 490 nm.
The lysates were centrifuged at 14,000 rpm for 10 minutes at 4° C. BCA protein assay kit (Pierce) was used to measure the protein concentrations of the supernatants, and bovine serum albumin was used as a standard. The remaining pellets were incubated with 100 μl ethanol-ether (1:1) for 10 minutes at room temperature. After removing the ethanol-ether, the pellets were dissolved in 200 μL of 2N NaOH in 20% DMSO at 70° C. A 180-μL aliquot of the resulting solution was measured for absorbance at 490 nm. The melanin contents were normalized to the total amount of protein.

[1] = Melan-a, melanin formation, melan-a cells, 1 μM compound, 72 hours incubation
[2] = Melan-a, melanin formation, melan-a cells, 5 μM compound, 72 hours incubation
[3] = inhibition of melanin synthesis, melan-a cells, read-out: IC50
[4] = melanin formation, melan-a cells, 1 μM compound, 72 hours incubation
[5] = melanin formation, melan-a cells, 5 μM compound, 72 hours incubation

For `C=C[C@H]1C[N@@]2CCC1C[C@H]2[C@H](O)c1ccnc2ccc(OC)cc12` (single isomer, unassigned; (+)) [ID 14, (+)-3-Hydroxybutyric acid, quinine salt], the “% Inh. @ 1 μM” value (melanin formation, melan-a cells, 1 μM compound, 72 hours incubation, 1 µM) was 32.6% and the “% Inh. @ 5 μM” value (melanin formation, melan-a cells, 5 μM compound, 72 hours incubation, 5 µM) was 61.3%.

Compound `CCN(CC)Cc1ccc(Nc2ccnc3cc(Cl)ccc23)cc1O` [ID 1, Amodiaquine Dihydrochloride] has an inhibition at 1 µM [1] of 21%, an inhibition at 5 µM [2] of 79% and an IC50 [3] of 2600 ± 150 nM.

`CCN(CC)CCCC(C)Nc1ccnc2cc(Cl)ccc12` (centres unmarked) [ID 2, Chloroquine Diphosphate] gave an IC50 (Melan-a) of 700 ± 180 nM, an inhibition at 1 µM (Melan-a) of 62% and an inhibition at 5 µM (Melan-a) of 70%.

Compound `COc1cc(NC(C)CCCN)c2ncccc2c1` (centres unmarked) [ID 3, Primaquine Diphosphate] has an IC50 (Melan-a) of 6800 ± 370 nM, an inhibition at 1 µM (Melan-a) of 30% and an inhibition at 5 µM (Melan-a) of 47%.

With `CCCCOc1cc(C(=O)NCCN(CC)CC)c2ccccc2n1` [ID 4, Dibucaine Hydrochloride] the IC50 [3] was 10200 ± 280 nM.

Compound `C=C[C@H]1C[N@]2CC[C@H]1C[C@@H]2[C@@H](OC(=O)OCC)c1ccnc2ccc(OC)cc12` [ID 5, Quinine Ethyl Carbonate] has an IC50 (Melan-a) of 5100 ± 120 nM, an inhibition at 1 µM (Melan-a) of 15% and an inhibition at 5 µM (Melan-a) of 49%.

In the case of `C=C[C@H]1C[N@]2CC[C@H]1C[C@@H]2[C@@H](O)c1ccnc2ccc(OC)cc12` [ID 6, Quinidine Gluconate], the IC50 (Melan-a) is reported as 2700 ± 140 nM, the inhibition at 1 µM (Melan-a) is reported as 41% and the inhibition at 5 µM (Melan-a) is reported as 58%.

Work on `C=C[C@H]1C[N@]2CC[C@H]1C[C@@H]2C(O)c1ccnc2ccc(OC)cc12` (some centres unmarked) [ID 7, Quinine Sulfate] yielded an IC50 (Melan-a) of 1500 ± 190 nM, an inhibition at 1 µM (Melan-a) of 31% and an inhibition at 5 µM (Melan-a) of 58%.

In the case of `CC[C@H]1CN2CCC1C[C@@H]2[C@@H](O)c1ccnc2ccc(OC)cc12` (some centres unmarked) [ID 8, Hydroquinidine], the inhibition at 1 µM [1] is reported as 30.9%, the inhibition at 5 µM [2] is reported as 52.3% and the “IC50 (μM)” value (inhibition of melanin synthesis, melan-a cells) is reported as “active”.

`C=C[C@H]1C[N@]2CC[C@H]1C[C@H]2[C@H](O)c1ccnc2ccccc12` [ID 9, Cinchonidine] was tested, and the inhibition at 1 µM [1] was 25%, the inhibition at 5 µM [2] was 35.7% and the IC50 [3] was 10900 ± 220 nM.

`C=C[C@H]1C[N@]2CC[C@H]1C[C@@H]2[C@H](O)c1ccnc2ccccc12` [ID 10, Cinchonine] gave an inhibition at 1 µM [1] of 18%, an inhibition at 5 µM [2] of 30% and an IC50 [3] greater than 20000 nM.

`OC(c1cc(C(F)(F)F)nc2c(C(F)(F)F)cccc12)C1CCCCN1` (centres unmarked) [ID 11, Mefloquine] showed an inhibition at 1 µM [1] of 10%, an inhibition at 5 µM [2] of 75% and an IC50 [3] of 2000 ± 150 nM.

`C=C[C@H]1CN2CCC1CC2C(O)c1ccnc2ccc(OC)cc12` (some centres unmarked) [ID 12, Quinine] showed an inhibition at 1 µM [1] of 42.6% and an inhibition at 5 µM [2] of 70.9%.

Compound `C=C[C@H]1C[N@@]2CCC1C[C@H]2[C@H](O)c1ccnc2ccc(OC)cc12` [ID 13, Quinine Salicylate] has an inhibition at 1 µM [1] of 33% and an inhibition at 5 µM [2] of 60%.

Work on `C=CC1CN2CCC1CC2[C@H](O)c1ccnc2ccc(OC)cc12` (some centres unmarked) [ID 16, Quinine hydrobromide] yielded an inhibition at 1 µM [1] of 30.1% and an inhibition at 5 µM [2] of 63.9%.

For `C=C[C@H]1CN2CCC1CC2[C@@H](O)c1ccnc2ccc(OC)cc12` (some centres unmarked) [ID 17, Quinine hydrochloride dihydrate], the inhibition at 1 µM [1] was 27.5% and the inhibition at 5 µM [2] was 61.5%.

Work on `CC[C@H]1CN2CCC1CC2C(O)c1ccnc2ccc(OC)cc12` (some centres unmarked) [ID 18, Hydroquinine] yielded an inhibition at 1 µM [1] of 37.3% and an inhibition at 5 µM [2] of 71.7%.

In the case of `CC[C@H]1C[N@@]2CCC1C[C@H]2[C@H](O)c1ccnc2ccc(OC)cc12` [ID 19, Hydroquinine hydrobromide hydrate], the inhibition at 1 µM [1] is reported as 26.8% and the inhibition at 5 µM [2] is reported as 67.4%.

`CC[C@H]1CN2CCC1CC2[C@@H](O)c1ccnc2ccccc12` (some centres unmarked) [ID 20, Hydrocinchonine] gave an inhibition at 1 µM (Melan-a) of 24% and an inhibition at 5 µM (Melan-a) of 37.3%.

With `C=C[C@H]1C[N+]2(Cc3ccccc3)CC[C@H]1C[C@H]2[C@H](O)c1ccnc2ccccc12.[Cl-]` [ID 21, N- Benzylcinchonidinium chloride] the “% Inh. @ 1 μM” value [4] was 9.6% and the “% Inh. @ 5 μM” value [5] was 16.4%.

`CC[C@H]1CN2CCC1CC2[C@@H](OC(=O)c1ccc(Cl)cc1)c1ccnc2ccc(OC)cc12` (some centres unmarked) [ID 22, Hydroquinidine 4-chlorobenzoate] was tested, and the inhibition at 1 µM [1] was 10% and the inhibition at 5 µM [2] was 25.5%.

“(−)-3-Hydroxybutyric acid, quinine salt [ID 15]” was tested, and the “% Inh. @ 1 μM” value [4] was 34.4% and the “% Inh. @ 5 μM” value [5] was 63.9%.
